Reference: US6440986B2, “HIV Inhibiting pyrimidine derivatives” (Janssen Pharmaceutica, N.V., priority 1998, dated 2002)
Structures can show the parent of a compound that is named as a salt. Where two headings read alike, the source gives them in different places.

Key:
[1] = test system: HIV-1; test: in vitro anti-HIV assay: inhibition of the HIV-induced cytopathic effect in MT-4 cells (MTT); format: cell-based; details: dose achieving 50% protection of HIV-infected MT-4 cells against cytopathic effect, OD 540 nm
Procedure: (§1) A rapid, sensitive and automated assay procedure was used for the in vitro evaluation of anti-HIV agents. An HIV-1 transformed T4-cell line, MT-4, which was previously shown (Koyanagi et al., Int. J. Cancer, 36, 445-451, 1985) to be highly susceptible to and permissive for HIV infection, served as the target cell line. Inhibition of the HIV-induced cytopathic effect was used as the end point. The viability of both HIV- and mock-infected cells was assessed spectrophotometrically via the in situ reduction of 3-(4,5-dimethylthiazol-2-yl)-2,5-diphenyltetrazolium bromide (MTT). […] The percent protection achieved by the compound in HIV-infected cells was calculated by the following formula: [formula]
(§2) whereby (ODT)HIV is the optical density measured with a given concentration of the test compound in HIV-infected cells; (ODC)HIV is the optical density measured for the control untreated HIV-infected cells: (ODC)MOCK is the optical density measured for the control untreated mock-infected cells; all optical density values were determined at 540 nm. […] The ratio of CC50 to IC50 was defined as the selectivity index (SI).

[2] = test system: MT-4 cells (mock-infected); test: cytotoxicity in mock-infected MT-4 cells (MTT); format: cell-based
Procedure: as §1, with “An HIV-1 transformed T4-cell line, MT-4, which was previously shown (Koyanagi et al., Int. J. Cancer, 36, 445-451, 1985) to be highly susceptible to and permissive for HIV infection, served as the target cell line.” left out
as §2

[3] = 50% cytotoxic concentration, reduces absorbance of mock-infected MT-4 control by 50%, MTT, read-out: CC50

SMILES | IC50 [1] [nM] | CC50 [2] [nM] | CC50 [2, 3] [nM]
N#Cc1ccc(Nc2nc(Cc3c(Cl)cccc3Cl)cc(NCCCCO)n2)cc1 [Compound 1] | 27 | 49700 | –
N#Cc1ccc(Nc2nc(Cc3c(Cl)cccc3Cl)cc(NCCO)n2)cc1 [Compound 2] | 35 | > 100000 | –
N#Cc1ccc(Nc2nc(Cc3c(Cl)cccc3Cl)cc(NCC(O)c3ccccc3)n2)cc1 (stereo not drawn) [Compound 4] | 315 | > 100000 | –
N#Cc1ccc(Nc2nc(Cc3c(Cl)cccc3Cl)cc(NCCCN3CCCC3=O)n2)cc1 [Compound 5] | – | 56200 | –
N#Cc1ccc(Nc2nc(Cc3c(Cl)cccc3Cl)cc(NCCOCCO)n2)cc1 [Compound 6] | 20 | 24400 | –
CC(C)OCCCNc1cc(Cc2c(Cl)cccc2Cl)nc(Nc2ccc(C#N)cc2)n1 [Compound 7] | 975 | > 100000 | –
COc1cccc(CCNc2cc(Cc3c(Cl)cccc3Cl)nc(Nc3ccc(C#N)cc3)n2)c1 [Compound 8] | 8150 | > 100000 | –
N#Cc1ccc(Nc2nc(Cc3c(Cl)cccc3Cl)cc(NCC(O)CO)n2)cc1 (stereo not drawn) [Compound 9] | 37 | 58600 | –
COc1ccc(CCNc2cc(Cc3c(Cl)cccc3Cl)nc(Nc3ccc(C#N)cc3)n2)cc1 [Compound 10] | 2530 | > 100000 | –
N#Cc1ccc(Nc2nc(Cc3c(Cl)cccc3Cl)cc(NCc3ccccc3)n2)cc1 [Compound 12] | 1680 | 55100 | –
N#Cc1ccc(Nc2nc(Cc3c(Cl)cccc3Cl)cc(NCCc3cccs3)n2)cc1 [Compound 14] | 2180 | 89000 | –
N#Cc1ccc(Nc2nc(Cc3c(Cl)cccc3Cl)cc(NO)n2)cc1 [Compound 15, 4-[[4-[(2,6-dichloro-phenyl)methyl]-6-(hydroxyamino)-2-pyrimidinyl]amino]benzonitrile dihydrobromide.pentahydrate] | 3 | 9000 | –
N#Cc1ccc(Nc2nc(Cc3c(Cl)cccc3Cl)cc(NCCc3ccccn3)n2)cc1 [Compound 16] | 389 | 41200 | –
CCCCCCCCCCCC(=O)Nc1cc(Cc2c(Cl)cccc2Cl)nc(Nc2ccc(C#N)cc2)n1 [Compound 18] | 2100 | 59900 | –
N#CCCNc1cc(Cc2c(Cl)cccc2Cl)nc(Nc2ccc(C#N)cc2)n1 [Compound 19] | 6 | 53600 | –
CCOC(=O)Nc1cc(Cc2c(Cl)cccc2Cl)nc(Nc2ccc(C#N)cc2)n1 [Compound 20] | 26 | 36500 | –
CC(=O)Nc1cc(Cc2c(Cl)cccc2Cl)nc(Nc2ccc(C#N)cc2)n1 [Compound 21] | 17 | 50600 | –
CCCC(=O)Nc1cc(Cc2c(Cl)cccc2Cl)nc(Nc2ccc(C#N)cc2)n1 [Compound 22] | 35 | 12200 | –
N#Cc1ccc(Nc2nc(N)cc(Cc3c(Cl)cccc3Cl)n2)cc1 [Compound 23] | 1 | 47900 | –
CNc1cc(Cc2c(Cl)cccc2Cl)nc(Nc2ccc(C#N)cc2)n1 [Compound 24] | 20 | 54000 | –
Nc1cc(Cc2c(Cl)cccc2Cl)nc(Nc2ccc(Br)cc2)n1 [Compound 27] | 17 | – | > 20000
Nc1nc(Cc2c(Cl)cccc2Cl)cc(Nc2ccc(Br)cc2)n1 [Compound 28] | 79 | – | > 20000
Nc1cc(Cc2c(Cl)cccc2Cl)nc(Nc2ccc(Cl)cc2)n1 [Compound 29] | 15 | – | > 20000
Nc1nc(Cc2c(Cl)cccc2Cl)cc(Nc2ccc(Cl)cc2)n1 [Compound 30] | 88 | – | > 20000
Nc1nc(Cc2c(Cl)cccc2Cl)cc(Nc2ccc(Br)cn2)n1 [Compound 31] | 24 | – | 86800
Nc1cc(Cc2c(Cl)cccc2Cl)nc(Nc2ccc(Br)cn2)n1 [Compound 32] | 403 | – | > 100000

SMILES | IC50 [1] [nM] | CC50 [2] [nM] | CC50 [2, 3] [nM]
Nc1cc(Cc2c(Cl)cccc2Cl)nc(Nc2ccc(F)cc2)n1 [Compound 33] | 42 | – | 43400
Nc1nc(Cc2c(Cl)cccc2Cl)cc(Nc2ccc(F)cc2)n1 [Compound 34] | 319 | – | 57800
Cc1ccc(Nc2nc(N)cc(Cc3c(Cl)cccc3Cl)n2)cc1 [Compound 35] | 103 | – | 42300
Cc1ccc(Nc2cc(Cc3c(Cl)cccc3Cl)nc(N)n2)cc1 [Compound 36] | 323 | – | > 100000
Nc1cc(Cc2c(Cl)cccc2Cl)nc(Nc2ccccc2)n1 [Compound 37] | 443 | – | 33400
Nc1nc(Cc2c(Cl)cccc2Cl)cc(Nc2ccccc2)n1 [Compound 38] | 2450 | – | 32400
N#Cc1ccc(Nc2cc(Cc3c(Cl)cccc3Cl)nc(NCCO)n2)cc1 [Compound 40] | 253 | – | 40200
CNc1nc(Cc2c(Cl)cccc2Cl)cc(Nc2ccc(C#N)cc2)n1 [Compound 41] | 1990 | – | 34200
N#Cc1ccc(Nc2cc(Cc3c(Cl)cccc3Cl)nc(NCCCO)n2)cc1 [Compound 42] | 352 | – | 35500
N#Cc1ccc(Nc2cc(Cc3c(Cl)cccc3Cl)nc(NCCCCO)n2)cc1 [Compound 43] | 603 | – | > 100000
N#Cc1ccc(Nc2cc(Cc3c(Cl)cccc3Cl)nc(N)n2)cc1 [Compound 45] | 10 | – | 56300
Cc1c(Cc2c(Cl)cccc2Cl)nc(N)nc1Nc1ccc(C#N)cc1 [Compound 46] | 45200 | – | > 100000
Cc1c(Cc2c(Cl)cccc2Cl)nc(N)nc1Nc1ccc(Br)cc1 [Compound 48] | 44200 | – | > 100000
Cc1c(N)nc(Nc2ccc(Br)cc2)nc1Cc1c(Cl)cccc1Cl [Compound 49] | 58 | – | 45200
N#Cc1ccc(Nc2cc(Oc3c(Cl)cccc3Cl)nc(N)n2)cc1 [Compound 50] | 518 | 52000 | –
N#Cc1ccc(Nc2cc(N)nc(Cc3c(Cl)cccc3Cl)n2)cc1 [Compound 51] | 452 | > 100000 | –
Cc1cc(C)c(Nc2ccnc(Nc3ccc(C#N)cc3)n2)c(C)c1 [Compound 53, 4-[[4-[(2,4,6-trimethyl-phenyl)amino]-2-pyrimidinyl]amino]benzonitrile hydrochloride (1:1)] | 0.6 | – | 1300
Cc1cc(Br)cc(C)c1Nc1ccnc(Nc2ccc(C#N)cc2)n1 [Compound 56] | 2.3 | 1900 | –
Cc1cccc(C)c1Nc1ccnc(Nc2ccc(C#N)cc2)n1 [Compound 57] | 0.7 | 800 | –
N#Cc1ccc(Nc2nccc(Sc3c(Cl)cccc3Cl)n2)cc1 [Compound 59] | 1.2 | > 100000 | –
N#Cc1ccc(Nc2nccc(Oc3c(Cl)cc(Cl)cc3Cl)n2)cc1 [Compound 60] | 290 | > 100000 | –
CC(C)c1cc(Br)c(Nc2ccnc(Nc3ccc(C#N)cc3)n2)c(Br)c1 [Compound 62] | 3.2 | 8700 | –
Cc1cc(C)c(Nc2nc(Nc3ccc(C#N)cc3)ncc2C)c(C)c1 [Compound 63] | 1.7 | 300 | –
Cc1cc(Cl)cc(Cl)c1Oc1ccnc(Nc2ccc(C#N)cc2)n1 [Compound 64] | 120 | > 100000 | –
N#Cc1ccc(Nc2nccc(Nc3c(Cl)cccc3Cl)n2)cc1 [Compound 65] | 180 | 200 | –
Cc1cnc(Nc2ccc(C#N)cc2)nc1Nc1c(C)cc(C#N)cc1C [Compound 83] | 0.8 | – | –
